Data taken from patent publication US5045302A, “Ligands and cationic complexes thereof with technetium-99m” (priority 1988, dated 1991).

Assay: Rat biodistribution of Tc-99m complexes

Row | Blood (2 min p.i.) | Heart (2 min p.i.) | Heart/Blood Counts/Gram Ratio (2 min p.i.) | Heart/Liver Counts/Gram Ratio (2 min p.i.) | Liver (2 min p.i.) | Blood (60 min p.i.) | Heart (60 min p.i.) | Heart/Blood Counts/Gram Ratio (60 min p.i.) | Heart/Liver Counts/Gram Ratio (60 min p.i.) | Liver (60 min p.i.) | Structure (SMILES)
1 | 19.85 % Injected dose/organ | 0.66 % Injected dose/organ | 0.44 | 1.57 | 5.90 % Injected dose/organ | 0.54 % Injected dose/organ | 0.17 % Injected dose/organ | 5.4 | 1.17 | 2.37 % Injected dose/organ | COCCP(CCOC)CCP(CCOC)CCOC [Compound 2]
2 | 15.6 % Injected dose/organ | 0.58 % Injected dose/organ | 0.61 | 0.18 | 44.3 % Injected dose/organ | 3.26 % Injected dose/organ | 0.46 % Injected dose/organ | 2.2 | 0.19 | 30.6 % Injected dose/organ | CCOC=CP(C=COCC)CCP(C=COCC)C=COCC [Compound 6]
3 | 7.17 % Injected dose/organ | 1.21 % Injected dose/organ | 2.54 | 0.70 | 22.0 % Injected dose/organ | 1.77 % Injected dose/organ | 0.96 % Injected dose/organ | 7.9 | 1.25 | 10.6 % Injected dose/organ | CCOC(C)CP(CCP(CC(C)OCC)CC(C)OCC)CC(C)OCC (centres unmarked) [Compound 13]
4 | 5.85 % Injected dose/organ | 0.85 % Injected dose/organ | 2.31 | 1.27 | 10.8 % Injected dose/organ | 0.38 % Injected dose/organ | 0.81 % Injected dose/organ | 33.2 | 7.46 | 1.78 % Injected dose/organ | CCOCCP(CCOCCF)CCP(CCOCC)CCOCCF (centres unmarked) [Compound 32]
5 | 11.0 % Injected dose/organ | 0.54 % Injected dose/organ | 0.72 | 0.41 | 19.0 % Injected dose/organ | 1.69 % Injected dose/organ | 0.42 % Injected dose/organ | 4.0 | 0.46 | 12.0 % Injected dose/organ | CCOCCOCCP(CCOCCOCC)CCP(CCOCCOCC)CCOCCOCC [Compound 8]
6 | 6.88 % Injected dose/organ | 1.21 % Injected dose/organ | 3.05 | 0.84 | 25.0 % Injected dose/organ | 1.22 % Injected dose/organ | 0.99 % Injected dose/organ | 13.4 | 1.21 | 12.4 % Injected dose/organ | CCOCCP(CCOC(C)C)CCP(CCOCC)CCOC(C)C (centres unmarked) [Compound 31]
7 | 3.92 % Injected dose/organ | 1.82 % Injected dose/organ | 6.98 | 1.74 | 16.4 % Injected dose/organ | 0.55 % Injected dose/organ | 1.42 % Injected dose/organ | 39.7 | 2.62 | 8.56 % Injected dose/organ | C1COC(CP(CCP(CC2CCCO2)CC2CCCO2)CC2CCCO2)C1 (centres unmarked) [Compound 24]

Row | Structure (SMILES) | Blood (2 min p.i.) | Heart (2 min p.i.) | Heart/Blood Counts/Gram Ratio (2 min p.i.) | Heart/Liver Counts/Gram Ratio (2 min p.i.) | Liver (2 min p.i.) | Blood (60 min p.i.) | Heart (60 min p.i.) | Heart/Blood Counts/Gram Ratio (60 min p.i.) | Heart/Liver Counts/Gram Ratio (60 min p.i.) | Liver (60 min p.i.)
8 | CCOCCP(CCOCC)CCP(CCOCC)CCOCC [Compound 1, (EtOC2 H4)2 P--C2 H4 --P(C2 H4 OEt)2] | 2.25 % Injected dose/organ | 1.66 % Injected dose/organ | 10.5 | 1.52 | 14.1 % Injected dose/organ | 0.28 % Injected dose/organ | 1.68 % Injected dose/organ | 86.4 | 14.4 | 1.62 % Injected dose/organ
